According to patent publication US20250262209A1, “TREATMENT OF GASTROINTESTINAL DISEASES” (Aclipse Two, Inc., priority 2022, published 2025):

Legend:
[1] = test system: colon of DSS-induced IBD model mice; assay: Colon histology (H&E score, PAS goblet cells) in the DSS-induced IBD model; format: in vivo; details: vs model
Experimental: H&E staining: Colon sections were cut at 4 μm in thickness, dried in an oven for 1 hour and stained with H&E solution with our standard protocol. Briefly, the sections were stained with hematoxylin solution for 90 seconds. Then stain in eosin solution for 30 seconds. Then dehydrated and coverslipped for the subsequent image analysis. H&E stained images was scanned using LEICA Aperio® GT450. The severity of inflammatory cell infiltration and tissue damage were semi-quantitatively evaluated according to pathology score criteria in Table 7.
PAS staining: Colon sections were cut at 4 μm in thickness, dried in an oven for 1 hour and stained with PAS kit (Gefan #M035) with our standard protocol. Briefly, the sections were stained with periodic acid working solution for 8 minutes. Then wash with distilled water for 5 minutes, three times. Stain in Schiff solution for 10 minutes. Transform to distilled water for 5 minutes, three times. Then dehydrated and coverslipped for the subsequent image analysis.
The total length of the colon was measured by a ruler and then was divided into 3 segments, 100 microns in the middle of each segment was taken out for goblet cell calculation. In each 100 microns of colon tissue, the number of goblet cells was calculated, then the average number of goblet cells from three parts was used for next analysis.
In vivo animal data were presented as mean±SEM. Statistical analysis was performed by one-way ANOVA followed by Dunnett's multiple comparison. […] The difference was considered significance when p<0.05.

[2] = test system: monocytes differentiated to M1 macrophage; assay: M1 macrophage differentiation assay; format: cell-based, human; details: TNF-α, IL-1b, IL-6, IL-12, IL-23 in supernatant on day 7 (MSD); concentrations of Table 9
Source text: The purpose of this study was to evaluate the effects of lobeglitazone and other thiazolidinediones on M1 macrophage differentiation. The test articles and vehicles used in this study were lobeglitazone sulfate, pioglitazone HCl, and rosiglitazone.
M1 macrophage differentiation assay timeline was as follows in Table 8.
Drug concentrations tested in the M1 differentiation assay are as in Table 9.
• (1) Revive frozen monocytes. • (2) Count cells and adjust the cell density to 0.5×10^6 cells/ml with fresh complete differentiation medium (RPMI1640+10% FBS+1% PS plus GM-CSF or M-CSF at 50 ng/ml). • (3) Seed isolated monocyte 100 μL per well on 96-well plate. • (4) Add test articles as the plate map using D300e (final concentration in μM). • (5) Differentiate the monocyte to macrophage in the presence of GM-CSF to M1, or M-CSF to M2 for 5 days. • (6) On day 5, add cytokines at 2× final concentration. • (6a) Prepare medium containing GM-CSF for M1 and M-CSF for M2. • (6b) Add corresponding activator to reach 2× final working concentration: (i) IFNγ stock 0.2 mg/ml: add 2.5 μL stock into 5 ml complete differentiation medium for 100 ng/ml; (ii) LPS stock 1.0 mg/ml: dilute to 20 μg/ml by mixing 2 μL stock into 100 μl medium; then add 10 μl 20 μg/ml LPS to 5 ml complete differentiation medium for 40 ng/ml; (iii) IL-4 stock 0.1 mg/ml: dilute 2 μL stock into 5 ml complete differentiation medium for 40 ng/ml. • (6c) Add 100 μL cytokine containing differentiating medium to each well, and total volume of each well is 200 μL. • (6d) Add test compound again using D300e. Make sure to set the final volume as 200 μL. • (7) Incubate cytokine and test compound for 48 hours. • (8) On day 7, spin down the plates at 300×g for 5 min and collect the supernatant for cytokine quantification using MSD. • (9) M1 associated macrophage cytokines TNF-α, IL-1b, IL-6, IL-12, and IL-23 were quantified.

How did the “H&E total score (inflammation/tissue damage)” value ([1]; 0.36 mg/kg PO QD 10 days) turn out when COc1ccc(Oc2cc(N(C)CCOc3ccc(CC4SC(=O)NC4=O)cc3)ncn2)cc1 (stereo not shown) [lobeglitazone, 5-(4-(2-((6-(4-Methoxyphenoxy)pyrimidin-4-yl)(methyl)amino)ethoxy)benzyl)thiazolidine-2,4-dione] was run?
The value was “led to decrease”.

And the “number of goblet cells (PAS staining)” value ([1]; 0.36 mg/kg PO QD 10 days)?
Its value is “trended to increase”.

And the “H&E total score (inflammation/tissue damage)” value ([1]; 1.20 mg/kg PO QD 10 days)?
Its value is “led to decrease”.

And the “number of goblet cells (PAS staining)” value ([1]; 1.20 mg/kg PO QD 10 days)?
Its value is “trended to increase”.

And the “H&E total score (inflammation/tissue damage)” value ([1]; 3.61 mg/kg PO QD 10 days)?
Its value is “led to decrease”.

And the “number of goblet cells (PAS staining)” value ([1]; 3.61 mg/kg PO QD 10 days)?
Its value is “did not change”.

And the “M1 macrophage cytokines expression” value [2]?
The value was “did not show the promotion”.
